Measured values as given in patent US6821769B2, “IniB, iniA and iniC genes of mycobacteria and methods of use” (priority 1998, dated 2004).

Experiments:
iniB promoter = format: cell-based, BCG; details: for Induction of the iniB promoter at 24 hours: BCG containing the iniB/lacZ construct; for Induction of the iniB promoter at 24 hours / iniA gene induction / effect on iniA transcription: FIG. 4; for iniA gene induction / effect on iniA transcription: amino acids; for iniB promoter induction: 213 base pair iniB promoter in lacz reporter construct
iniA [1] = assay: Northern blot of iniA induction after antibiotic treatment; format: cell-based; details: total RNA from M. tuberculosis cultured with or without antibiotics; FIG. 1
Method: Autoradiographs of a Northern blot containing RNA from M. tuberculosis cultures treated either with no antibiotics; isoniazid 0.01 μg/ml; isoniazid 0.1 μg/ml; isoniazid 1 μg/ml; ethambutol 5 μg/ml; streptomycin 5 μg/ml; and rifampin 5 μg/ml. The blots were hybridized first with an iniA DNA probe (top) to examine iniA induction; the blot was then stripped and re-hybridized with a 16S probe (bottom) to confirm equal RNA loading.
Mycobacterial cultures were grown to mid log phase in Middlebrook 7H9 media supplemented with OADC, 0.05% Tween 80, and cyclohexamide (18) (for some experiments antibiotics were added for the last 18 hours), pelleted, resuspended in chloroform/methanol 3:1, and vortexed for 60 seconds or until the formation of an interface. RNA was extracted with five volumes of Triazole (Life Technologies, Gaithersburg, Md.), the aqueous layer precipitated in isopropanol, redissolved in 4M GTC and extracted a second time with Triazole.
Five μg of each RNA sample were analyzed by northern blot with Northern Max kits (Ambion, Austin, Tex.) in a 1% denaturing agarose gel, probed with inserts of differentially expressed plasmids labeled by random priming with [α^32P] dCTP, and visualized by autoradiography.

iniA [2] = format: cell-based, M. tuberculosis strain Erdman; details: RT PCR; isoniazid added for the last 18 hours; FIG. 2A
asd = format: cell-based, M. tuberculosis strain Erdman; details: RT PCR; isoniazid added for the last 18 hours; FIG. 2A

| SMILES | Induction of the iniB promoter at 24 hours (iniB promoter) | iniB promoter induction (iniB promoter; FIG. 3) | iniA induction (Northern blot) (iniA [1]) | further results |
| --- | --- | --- | --- | --- |
| C[C@H](O)[C@@H](N)C(=O)O [D-threonine] | comparable to that of isoniazid and Unisyn |  |  | iniA gene induction / effect on iniA transcription (iniB promoter): induced |
| C[C@@H](O)[C@H](N)C(=O)O [L-threonine] | did not cause induction |  |  | iniA gene induction / effect on iniA transcription (iniB promoter): minimal effect |
| N[C@@H]1CON=C1O [cycloserine] |  | induced |  |  |
| CC[C@@H](CO)NCCN[C@@H](CC)CO [ethambutol] |  | induced | strongly induced |  |
| NCC(=O)O [gylcine] | Modest induction |  |  |  |
| NNC(=O)c1ccncc1 [isoniazid] |  | induced | strongly induced | iniA induction by densitometry (iniA [2]): 70 fold; asd repression (asd): 17 fold |
| CO[C@H]1/C=C/O[C@@]2(C)Oc3c(C)c(O)c4c(O)c(c(/C=N/N5CCN(C)CC5)c(O)c4c3C2=O)NC(=O)/C(C)=C\C=C\[C@H](C)[C@H](O)[C@@H](C)[C@@H](O)[C@@H](C)[C@H](OC(C)=O)[C@@H]1C [rifampin] |  |  | not | Reversal of iniB promoter induction by co-administration (iniB promoter; co-administration with inducing antibiotic, FIG. 3): can be reversed |
| [H]/N=C(/N)N[C@H]1[C@H](O)[C@@H](O)[C@H](O[C@@H]2O[C@@H](C)[C@](O)(C=O)[C@H]2O[C@@H]2O[C@@H](CO)[C@H](O)[C@@H](O)[C@@H]2NC)[C@@H](N/C(N)=N\[H])[C@@H]1O [streptomycin] |  |  | not |  |
